The values below are quoted from earlier work in US5942536A, “N-[2-substituted-3-(2-aminoethyl)-1H-indol-5-YL]-Amides: new 5-HT1F agonists” (Eli Lilly and Company, priority 1998, dated 1999).

For series [1], the target named is T1, 5-HT1F receptor (Homo sapiens, UniProt P30939).
T1 sequence (P30939 1-366): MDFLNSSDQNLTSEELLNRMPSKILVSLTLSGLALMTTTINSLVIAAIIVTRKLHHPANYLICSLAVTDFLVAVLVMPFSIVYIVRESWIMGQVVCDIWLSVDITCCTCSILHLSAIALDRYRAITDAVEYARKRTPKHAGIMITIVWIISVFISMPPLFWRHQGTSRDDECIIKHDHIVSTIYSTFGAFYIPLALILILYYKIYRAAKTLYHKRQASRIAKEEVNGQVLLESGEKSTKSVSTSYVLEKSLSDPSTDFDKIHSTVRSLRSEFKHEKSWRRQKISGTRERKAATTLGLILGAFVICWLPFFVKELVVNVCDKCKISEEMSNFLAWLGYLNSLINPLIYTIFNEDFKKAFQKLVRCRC
As to conditions: literature (Weinshank); reference for Emax.

The subject of series [2] is cephalic vascular smooth muscle. As to conditions: literature (Humphrey, et al.).
For series [3] the following is noted: literature (Humphrey, et al.).
The subject of series [4] is neurogenic inflammation. The note with it: literature (Moskowitz).

Take `NCCc1c[nH]c2ccc(O)cc12` [serotonin]: the “effect on forskolin stimulated cAMP production” value in series [1] was “maximal effect”.

In the case of `CNS(=O)(=O)Cc1ccc2[nH]cc(CCN(C)C)c2c1` [sumatriptan], the “contraction of cephalic vascular smooth muscle” value in series [2] is on record as “contract cephalic vascular smooth muscle”. In addition, the “effective in the treatment of migraine” value in series [3] was “effective in the treatment of migraine”. The “block of neurogenic inflammation” value in series [4] is listed as “blocked”.
